Measured values as given in ChEMBL document CHEMBL1130395, “Cannabinol derivatives: binding to cannabinoid receptors and inhibition of adenylylcyclase” (J Med Chem, 1997).
Activity calls are given as the source filed them. No cut-off for these calls is given here.

Key:
Cannabinoid receptor 2 [1] = biological target: T1, Cannabinoid receptor 2 (Homo sapiens, UniProt P34972); experiment: Binding affinity to Cannabinoid receptor 2 using African green monkey (COS-7) cells Chinese hamster ovary(CHO) cells transfected with the cDNA of human CB2; format: cell-based
Cannabinoid receptor 1 [2] = biological target: T2, Cannabinoid receptor 1 (Rattus norvegicus, UniProt P20272); experiment: Binding affinity for Cannabinoid receptor 1 using African green monkey (COS-7) cells transfected with the cDNA of […].
Cannabinoid receptor 2 [3] = biological target: T1, Cannabinoid receptor 2; experiment: Effective concentration for inhibition of human Cannabinoid receptor 2-mediated adenylyl cyclase using African green monkey (COS-7) cells transfected with the cDNA of human CB2 receptor; format: functional
Cannabinoid receptor 1 [4] = biological target: T2, Cannabinoid receptor 1; experiment: Binding to Cannabinoid receptor 1 using African green monkey (COS-7) cells transfected with the cDNA of rat CB1.; format: cell-based
Cannabinoid receptor 1 [5] = biological target: T2, Cannabinoid receptor 1; experiment: Effective concentration for inhibition of Cannabinoid receptor 1-mediated adenylyl cyclase activity using African green monkey (COS-7) cells transfected with the cDNA of rat CB1 receptor; format: functional
Cannabinoid receptor 2 [6] = biological target: T1, Cannabinoid receptor 2; experiment: Inhibitory activity of 1 uM against human Cannabinoid receptor 2-mediated adenylyl cyclase using African green monkey (COS-7) cells transfected with the cDNA of human CB2 receptor; format: functional, cell-based
[7] = biological target: Cannabinoid receptor 1 (Rattus norvegicus) (UniProt P20272); experiment: Inhibitory affect of 1 uM 0f the substance against cDNA of rat Cannabinoid receptor 1
[8] = biological target: Cannabinoid receptor 1 (Rattus norvegicus) (UniProt P20272); experiment: Inhibitory affect of 1 uM of the substance against Cannabinoid receptor 1-mediated adenylyl cyclase using African green monkey (COS-7) cells transfected with the cDNA of rat CB1 receptor; No inhibition; format: functional, cell-based
Cannabinoid receptor 2 [9] = biological target: T1, Cannabinoid receptor 2; experiment: Inhibitory effect of 1 uM of the substance against African green monkey (COS-7) cells Chinese hamster ovary(CHO) cells transfected with the cDNA of human Cannabinoid receptor 2; format: cell-based
[10] = biological target: Cannabinoid receptor 1 (Rattus norvegicus) (UniProt P20272); experiment: Inhibitory affect of 1 uM of the substance against Cannabinoid receptor 1-mediated adenylyl cyclase using African green monkey (COS-7) cells transfected with the cDNA of rat CB1 receptor; format: functional, cell-based
Cannabinoid receptor 2 [11] = biological target: T1, Cannabinoid receptor 2; experiment: Inhibitory affect of 1 uM of the substance against African green monkey (COS-7) cells Chinese hamster ovary(CHO) cells transfected with the cDNA of human Cannabinoid receptor 2; format: cell-based
[12] = biological target: Cannabinoid receptor 1 (Rattus norvegicus) (UniProt P20272); experiment: Inhibitory affect of 1 uM of the substance against African green monkey (COS-7) cells transfected with the cDNA of rat Cannabinoid receptor 1; format: cell-based
[13] = biological target: Cannabinoid receptor 1 (Rattus norvegicus) (UniProt P20272); experiment: Inhibitory affect of 1 uM againstAfrican green monkey (COS-7) cells transfected with the cDNA of rat Cannabinoid receptor 1; format: cell-based
Cannabinoid receptor 2 [14] = biological target: T1, Cannabinoid receptor 2; experiment: Inhibitory affect of 1 uM against African green monkey (COS-7) cells Chinese hamster ovary(CHO) cells transfected with the cDNA of human Cannabinoid receptor 2; format: cell-based
Cannabinoid receptor 1 [15] = biological target: T2, Cannabinoid receptor 1; experiment: Binding affinity of compound towards Cannabinoid receptor 1 in rat brain synaptosomal membrane preparations; format: cell membranes
Cannabinoid receptor 1 [16] = biological target: T2, Cannabinoid receptor 1; experiment: Binding affinity of compound towards Cannabinoid receptor 1 in african green monkey COS-7 cells transfected with cDNA of rat CB1 receptor; format: cell-based
Cannabinoid receptor 2 [17] = biological target: T1, Cannabinoid receptor 2; experiment: Binding affinity of compound towards Cannabinoid receptor 2 in african green monkey COS-7 cells transfected with cDNA of human CB2 receptor; format: cell-based
Cannabinoid receptor 2 [18] = biological target: T1, Cannabinoid receptor 2; experiment: Inhibitory affect of 1 uM of the substance against human Cannabinoid receptor 2-mediated adenylyl cyclase using African green monkey (COS-7) cells transfected with the cDNA of human CB2 receptor; No inhibition; format: functional, cell-based

Sequence of Cannabinoid receptor 1 (Rattus norvegicus) (P20272 whole entry): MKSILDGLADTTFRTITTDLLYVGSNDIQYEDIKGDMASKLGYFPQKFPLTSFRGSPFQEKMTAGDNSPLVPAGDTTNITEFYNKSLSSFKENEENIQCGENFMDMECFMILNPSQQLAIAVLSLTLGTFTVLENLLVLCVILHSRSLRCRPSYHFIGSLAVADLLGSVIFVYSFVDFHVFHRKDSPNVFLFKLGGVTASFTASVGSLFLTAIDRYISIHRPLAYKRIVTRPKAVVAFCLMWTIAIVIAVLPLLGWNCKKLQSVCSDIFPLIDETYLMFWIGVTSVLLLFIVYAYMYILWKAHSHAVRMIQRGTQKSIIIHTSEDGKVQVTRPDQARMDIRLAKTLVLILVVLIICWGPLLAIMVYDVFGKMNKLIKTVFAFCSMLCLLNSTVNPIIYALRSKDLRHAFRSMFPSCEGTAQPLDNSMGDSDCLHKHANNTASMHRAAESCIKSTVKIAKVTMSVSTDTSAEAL
T2 sequence (P20272 whole entry): as above
T1 sequence (P34972 whole entry): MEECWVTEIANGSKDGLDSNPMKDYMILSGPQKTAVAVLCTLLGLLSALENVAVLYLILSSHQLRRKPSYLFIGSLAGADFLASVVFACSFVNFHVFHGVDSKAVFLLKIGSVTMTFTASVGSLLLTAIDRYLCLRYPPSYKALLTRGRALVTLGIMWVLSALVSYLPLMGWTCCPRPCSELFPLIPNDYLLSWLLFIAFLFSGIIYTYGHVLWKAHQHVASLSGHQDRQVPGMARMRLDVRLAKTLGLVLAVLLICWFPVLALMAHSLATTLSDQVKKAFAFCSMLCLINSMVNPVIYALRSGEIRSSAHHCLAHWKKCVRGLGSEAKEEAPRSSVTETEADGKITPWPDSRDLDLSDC

CCCCCCC(C)(C)c1cc(O)c2c(c1)OC(C)(C)c1ccc(C(=O)O)cc1-2
Ki (Cannabinoid receptor 2 [1]): 4.8 nM
Ki (Cannabinoid receptor 1 [2]): 6.1 nM
EC50 (Cannabinoid receptor 2 [3]): 5.4 nM
Ki (Cannabinoid receptor 1 [4]): 6.1 nM
EC50 (Cannabinoid receptor 1 [5]): 2.4 nM

CCCCCCC(C)(C)c1cc(OC(C)=O)c2c(c1)OC(C)(C)[C@@H]1CC=C(C(=O)O)CC21 (some centres undefined)
Ki (Cannabinoid receptor 1 [2]): > 10000 nM
inhibition (Cannabinoid receptor 2 [6]): 27%
inhibition [7]: 11%
inhibition [8]: inactive
inhibition (Cannabinoid receptor 2 [9]): 9%

CCCCCCC(C)(C)c1cc(OC(C)=O)c2c(c1)OC(C)(C)c1ccc(C(=O)O)cc1-2
Ki (Cannabinoid receptor 2 [1]): 17.3 nM
Ki (Cannabinoid receptor 1 [2]): 556 nM
EC50 (Cannabinoid receptor 2 [3]): 39.3 nM
Ki (Cannabinoid receptor 1 [4]): 49.8 nM
EC50 (Cannabinoid receptor 1 [5]): 13.3 nM

CCCCCc1cc(O)c2c(c1)OC(C)(C)c1ccc(C(=O)O)cc1-2
Ki (Cannabinoid receptor 1 [2]): 602 nM
inhibition (Cannabinoid receptor 2 [6]): 6%
inhibition [10]: 10%
inhibition (Cannabinoid receptor 2 [11]): 23%
inhibition [12]: < 2%

CCCCCCC(C)(C)c1cc(O)c2c(c1)OC(C)(C)[C@@H]1CC=C(CO)CC21 (some centres undefined)
Ki (Cannabinoid receptor 1 [2]): 0.19 nM
Ki (Cannabinoid receptor 1 [4]): 0.1 nM
EC50 (Cannabinoid receptor 1 [5]): 0.035 nM

CCCCCc1cc(O)c2c(c1)OC(C)(C)[C@@H]1CC=C(CO)CC21 (some centres undefined)
Ki (Cannabinoid receptor 2 [1]): 7.4 nM
Ki (Cannabinoid receptor 1 [2]): 33.4 nM
inhibition (Cannabinoid receptor 2 [6]): 19%
Ki (Cannabinoid receptor 1 [4]): 25.8 nM
EC50 (Cannabinoid receptor 1 [5]): 39.9 nM

CCCCCc1cc(OC(C)=O)c2c(c1)OC(C)(C)c1ccc(C(=O)O)cc1-2
Ki (Cannabinoid receptor 1 [2]): > 10000 nM
inhibition [13]: 35%
inhibition (Cannabinoid receptor 2 [6]): 2%
inhibition [10]: 3%
inhibition (Cannabinoid receptor 2 [14]): 19%

CCCCCCC(C)(C)c1cc(O)c2c(c1)OC(C)(C)[C@@H]1CCC(C)=CC21 (some centres undefined)
Ki (Cannabinoid receptor 2 [1]): 0.199 nM
Ki (Cannabinoid receptor 1 [2]): 2.6 nM
EC50 (Cannabinoid receptor 2 [3]): 1.01 nM
Ki (Cannabinoid receptor 1 [4]): 0.241 nM
EC50 (Cannabinoid receptor 1 [5]): 0.58 nM

CCCCCc1cc(O)c2c(c1)OC(C)(C)c1ccc(CO)cc1-2
Ki (Cannabinoid receptor 2 [1]): 26.6 nM
Ki (Cannabinoid receptor 1 [2]): 189 nM
inhibition (Cannabinoid receptor 2 [6]): 20%
Ki (Cannabinoid receptor 1 [4]): 38 nM
EC50 (Cannabinoid receptor 1 [5]): 58.1 nM

CCCCCc1cc(O)c2c(c1)OC(C)(C)[C@@H]1CCC(C)=C[C@@H]21
inhibition (Cannabinoid receptor 2 [6]): 21%

CCCCCc1cc(O)c2c(c1)OC(C)(C)c1ccc(C)cc1-2 [CANNABINOL]
Ki (Cannabinoid receptor 1 [15]): 392 nM
Ki (Cannabinoid receptor 1 [16]): 211 nM
EC50 (Cannabinoid receptor 2 [3]): 261 nM
EC50 (Cannabinoid receptor 1 [5]): 120 nM
Ki (Cannabinoid receptor 2 [17]): 126 nM

CCCCCc1cc(O)c2c(c1)oc(=O)c1ccc(C)cc12
Ki (Cannabinoid receptor 1 [2]): > 10000 nM
inhibition (Cannabinoid receptor 2 [18]): inactive
inhibition [10]: 7%
inhibition (Cannabinoid receptor 2 [11]): 14%
inhibition [12]: 14%

CCCCCCC(C)(C)c1cc(O)c2c(c1)OC(C)(C)c1ccc(C)cc1-2
Ki (Cannabinoid receptor 2 [1]): 1.5 nM
Ki (Cannabinoid receptor 1 [2]): 3.3 nM
EC50 (Cannabinoid receptor 2 [3]): 0.79 nM
Ki (Cannabinoid receptor 1 [4]): 2 nM
EC50 (Cannabinoid receptor 1 [5]): 0.18 nM

CCCCCCC(C)(C)c1cc(O)c2c(c1)oc(=O)c1ccc(C)cc12
Ki (Cannabinoid receptor 2 [1]): 17.3 nM
Ki (Cannabinoid receptor 1 [2]): 72.5 nM
EC50 (Cannabinoid receptor 2 [3]): 4.6 nM
Ki (Cannabinoid receptor 1 [4]): 32.7 nM
EC50 (Cannabinoid receptor 1 [5]): 9.6 nM

CCCCCCC(C)(C)c1cc(O)c2c(c1)OC(C)(C)[C@@H]1CC=C(C(=O)O)CC21 (some centres undefined)
Ki (Cannabinoid receptor 2 [1]): 170 nM
Ki (Cannabinoid receptor 1 [2]): 481 nM
EC50 (Cannabinoid receptor 2 [3]): 116 nM
Ki (Cannabinoid receptor 1 [4]): 32.3 nM
EC50 (Cannabinoid receptor 1 [5]): 927 nM

CCCCCCC(C)(C)c1cc(O)c2c(c1)OC(C)(C)c1ccc(CO)cc1-2
Ki (Cannabinoid receptor 2 [1]): 0.2 nM
Ki (Cannabinoid receptor 1 [2]): 1.8 nM
EC50 (Cannabinoid receptor 2 [3]): 0.208 nM
Ki (Cannabinoid receptor 1 [4]): 0.1 nM
EC50 (Cannabinoid receptor 1 [5]): 0.056 nM
